Laboratory results from US10899732B2, “Substituted benzamides useful as sodium channel blockers” (GENENTECH, INC., priority 2015, dated 2021).
pIC50: −log10 of the molar value.

What was measured:
hNav1.7 = biological target: T1, hNav1.7 (Homo sapiens, UniProt Q15858); experiment: Tritiated sulfonamide competitive binding to membranes from cells expressing hNav1.7 and the β1 subunit (LBA); settings: competition with 100 pM [3H]compound, 18 h, room temperature; read-out: Nav1.7 (LBA)
T1 construct: expressed in transfected cells
T1 sequence (Q15858 1-1977 isoform Q15858-3): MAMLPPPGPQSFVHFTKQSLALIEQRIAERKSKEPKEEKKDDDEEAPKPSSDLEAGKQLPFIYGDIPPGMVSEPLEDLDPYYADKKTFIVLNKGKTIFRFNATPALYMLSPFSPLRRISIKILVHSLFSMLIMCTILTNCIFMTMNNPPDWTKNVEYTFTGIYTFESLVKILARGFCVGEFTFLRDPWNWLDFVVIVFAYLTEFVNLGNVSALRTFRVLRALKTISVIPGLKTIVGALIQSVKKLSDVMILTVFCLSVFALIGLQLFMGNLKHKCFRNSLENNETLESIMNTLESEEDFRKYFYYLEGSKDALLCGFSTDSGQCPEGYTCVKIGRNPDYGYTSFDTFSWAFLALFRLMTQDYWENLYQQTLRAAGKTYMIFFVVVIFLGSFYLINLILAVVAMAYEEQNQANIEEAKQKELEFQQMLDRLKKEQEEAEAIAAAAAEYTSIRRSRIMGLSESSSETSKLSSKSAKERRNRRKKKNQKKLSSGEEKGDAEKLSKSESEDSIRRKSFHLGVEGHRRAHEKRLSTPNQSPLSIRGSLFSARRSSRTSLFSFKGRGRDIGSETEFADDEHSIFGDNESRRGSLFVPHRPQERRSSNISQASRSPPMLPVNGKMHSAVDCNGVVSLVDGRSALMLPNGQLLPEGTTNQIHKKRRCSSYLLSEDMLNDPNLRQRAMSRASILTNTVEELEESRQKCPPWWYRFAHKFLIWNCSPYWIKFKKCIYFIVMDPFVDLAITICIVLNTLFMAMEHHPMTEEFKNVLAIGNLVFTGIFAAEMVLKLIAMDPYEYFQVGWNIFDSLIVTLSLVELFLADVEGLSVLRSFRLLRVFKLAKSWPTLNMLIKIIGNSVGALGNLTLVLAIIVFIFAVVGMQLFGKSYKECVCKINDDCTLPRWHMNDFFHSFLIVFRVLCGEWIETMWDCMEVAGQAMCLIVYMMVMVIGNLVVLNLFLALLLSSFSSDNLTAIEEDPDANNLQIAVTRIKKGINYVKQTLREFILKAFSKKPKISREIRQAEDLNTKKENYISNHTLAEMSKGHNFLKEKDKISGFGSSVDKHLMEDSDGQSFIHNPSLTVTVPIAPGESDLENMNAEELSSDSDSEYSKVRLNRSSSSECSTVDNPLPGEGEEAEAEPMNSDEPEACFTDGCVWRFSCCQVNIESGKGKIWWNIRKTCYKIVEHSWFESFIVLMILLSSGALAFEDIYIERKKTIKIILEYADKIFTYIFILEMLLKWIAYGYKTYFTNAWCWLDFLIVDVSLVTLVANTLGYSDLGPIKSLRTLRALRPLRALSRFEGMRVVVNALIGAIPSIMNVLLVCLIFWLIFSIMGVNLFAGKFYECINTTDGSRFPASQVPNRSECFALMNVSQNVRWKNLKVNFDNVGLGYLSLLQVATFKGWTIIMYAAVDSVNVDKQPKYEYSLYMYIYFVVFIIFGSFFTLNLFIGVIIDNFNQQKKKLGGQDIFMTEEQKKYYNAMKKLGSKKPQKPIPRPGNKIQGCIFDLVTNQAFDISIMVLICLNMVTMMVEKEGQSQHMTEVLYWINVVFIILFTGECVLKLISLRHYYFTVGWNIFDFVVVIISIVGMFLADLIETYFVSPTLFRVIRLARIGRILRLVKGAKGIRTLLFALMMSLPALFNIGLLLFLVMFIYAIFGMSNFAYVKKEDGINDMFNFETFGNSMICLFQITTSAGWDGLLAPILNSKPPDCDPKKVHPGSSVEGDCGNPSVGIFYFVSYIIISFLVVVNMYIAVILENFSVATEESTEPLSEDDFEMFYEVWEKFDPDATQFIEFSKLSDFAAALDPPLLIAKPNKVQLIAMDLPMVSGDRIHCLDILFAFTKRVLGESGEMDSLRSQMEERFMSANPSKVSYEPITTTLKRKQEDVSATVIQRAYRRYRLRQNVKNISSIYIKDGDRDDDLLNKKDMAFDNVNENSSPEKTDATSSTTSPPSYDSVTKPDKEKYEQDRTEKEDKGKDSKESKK
T1 sequence (Q07699 19-218 partner): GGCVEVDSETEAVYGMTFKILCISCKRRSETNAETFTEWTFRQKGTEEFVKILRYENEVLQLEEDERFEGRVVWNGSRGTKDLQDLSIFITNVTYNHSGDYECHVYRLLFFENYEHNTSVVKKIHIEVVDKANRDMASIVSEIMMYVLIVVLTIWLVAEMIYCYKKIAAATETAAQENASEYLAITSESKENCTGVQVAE
Experimental: Tritiated Sulfonamide Binding to Membranes Isolated from Cells that Heterologously Express hNav1.7 and the β1 Subunit
Preparation of membranes containing recombinantly expressed sodium channels: Frozen recombinant cell pellets were thawed on ice and diluted to 4 times the cell pellet weight with ice cold 50 mM Tris HCl, pH 7.4 buffer. The cell suspensions were homogenized on ice using a motorized glass dounce homogenizer. Homogenates were further diluted 8.4 times with ice cold 50 mM Tris HCl, pH 7.4 buffer and then centrifuged at 200×g at 4° C. for 15 min. The supernatants were collected and centrifuged at 10000×g at 4° C. for 50 min. The pellets were then re-suspended in 100 mM NaCl, 20 mM Tris HCl, pH 7.4 buffer containing 1% v/v protease inhibitors (Calbiochem) and re-homogenized on ice. The homogenized membranes were then processed through a syringe equipped with a 26 gauge needle. Protein concentrations were determined by Bradford Assay and the membranes were stored at −80° C.
Saturation experiments. A competitive NaV1.7 inhibitor having a methyl group was tritiated. Three tritiums were incorporated in place of methyl hydrogens to generate [^3H]compound. Binding of this radioligand was preformed in 5 mL borosilicate glass test tubes at room temperature. Binding was initiated by adding membranes to increasing concentrations of [^3H]compound in 100 mM NaCl, 20 mM Tris HCl, pH 7.4 buffer containing 0.01% w/v bovine serum albumin (BSA) for 18 h. Non-specific binding was determined in the presence of 1 μM unlabelled compound. After 18 h, the reactants were filtered through GF/C glass fiber filters presoaked in 0.5% w/v polyethylene imine. Filters were washed with 15 mL ice cold 100 mM NaCl, 20 mM Tris HCl, pH 7.4 buffer containing 0.25% BSA to separate bound from free ligand. [^3H]compound bound to filters was quantified by liquid scintillation counting.
Binding reactions were performed in 96-well polypropylene plates at room temperature for 18 h. In 360 μL, membranes were incubated with 100 pM [^3H]compound and increasing concentrations of Test Compound. Non-specific binding was defined in the presence of 1 μM unlabelled compound. Reactions were transferred and filtered through 96-well glass fiber/C filter plates presoaked with 0.5% polyethylene imine. The filtered reactions were washed 5 times with 200 μL ice cold buffer containing 0.25% BSA. Bound radioactivity was determined by liquid scintillation counting.
Data Analysis: For saturation experiments, non-specific binding was subtracted from total binding to provide specific binding and these values were recalculated in terms of pmol ligand bound per mg protein. Saturation curves were constructed and dissociation constants were calculated using the single site ligand binding model: Beq=(Bmax*X)/(X+Kd), where Beq is the amount of ligand bound at equilibrium, Bmax is the maximum receptor density, Kd is the dissociation constant for the ligand, and X is the free ligand concentration. For competition studies percent inhibition was determined and IC50 values were calculated using a 4 parameter logistic model (% inhibition=(A+((B−A)/(1+((x/C)^D)))) using XLfit, where A and B are the maximal and minimum inhibition respectively, C is the IC50 concentration and D is the (Hill) slope.

NaV1.7 = biological target: T2, NaV1.7 (Homo sapiens, UniProt Q15858); experiment: Patch voltage clamp electrophysiology assay (EP), NaV1.7 in HEK-293 cells; type: cell-based; settings: HEK-293, β1 coexpressed, held at -60 mV (inactivated state)
T2 construct: expression vector containing the full-length cDNA coding for the desired human sodium channel α-subunit; expressed in transfected cells; host or cells: HEK-293
T2 sequence (Q15858 1-1977 isoform Q15858-3): as the sequence (Q15858 1-1977 isoform Q15858-3) above
T2 sequence (Q07699 19-218 partner): as the sequence (Q07699 19-218 partner) above
Description: (§1) Electrophysiological Assay (EP) (In Vitro Assay)
(§2) Patch voltage clamp electrophysiology allows for the direct measurement and quantification of block of voltage-gated sodium channels (NaV's), and allows the determination of the time- and voltage-dependence of block which has been interpreted as differential binding to the resting, open, and inactivated states of the sodium channel (Hille, B., Journal of General Physiology (1977), 69: 497-515).
(§3) The following patch voltage clamp electrophysiology studies were performed on representative compounds of the invention using human embryonic kidney cells (HEK), permanently transfected with an expression vector containing the full-length cDNA coding for the desired human sodium channel α-subunit, grown in culture media containing 10% FBS, 1% PSG, and 0.5 mg/mL G418 at 37° C. with 5% CO2. […] NaV1.7 and NaV1.5 cDNAs (NM_002977 and AC137587; SCN5A, respectively) were stably expressed in HEK-293 cells. The β1 subunit was coexpressed in both the NaV1.7 and NaV1.5 cell lines.
(§4) Sodium currents were measured using the patch clamp technique in the whole-cell configuration using either a PatchXpress automated voltage clamp or manually using an Axopatch 200B (Axon Instruments) or Model 2400 (A-M systems) amplifier. The manual voltage clamp protocol was as follows: Borosilicate glass micropipettes were fire-polished to a tip diameter yielding a resistance of 2-4 Mohms in the working solutions. The pipette was filled with a solution comprised of: 5 mM NaCl, 10 mM CsCl, 120 mM CsF, 0.1 mM CaCl2, 2 mM MgCl2, 10 mM HEPES, 10 mM EGTA; and adjusted to pH 7.2 with CsOH. The external solution had the following composition: 140 mM NaCl, 5 mM KCl, 2 mM CaCl2, 1 mM MgCl2, 10 mM HEPES; and adjusted to pH 7.4 with NaOH. In some studies, the external sodium was reduced by equimolar replacement with choline. Osmolarity in the CsF internal and NaCl external solutions was adjusted to 300 mOsm/kg and 310 mOsm/kg with glucose, respectively. All recordings were performed at ambient temperature in a bath chamber with a volume of 150 μL. Control sodium currents were measured in 0.5% DMSO. Controls and representative compounds of the invention were applied to the recording chamber through a 4-pinch or 8-pinch valve bath perfusion system manufactured by ALA Scientific Instruments.
(§5) Currents were recorded at 40 kHz sampling frequency, filtered at […], and stored using a Digidata-1322A analogue/digital interface with the pClamp software (Axon Instruments). Series resistance compensation was applied (60-80%). […] All statistics in this study are given as mean±SD.
(§6) The membrane potential was maintained at a voltage where inactivation of the channel is complete (which was −60 mV for both NaV1.7 and NaV1.5). The voltage is then stepped back to a very negative (Vhold=[…]) voltage for 20 ms and then a test pulse is applied to quantify the compound block. The 20 ms brief repolarization was long enough for compound-free channels to completely recover from fast inactivation, but the compound-bound channels recovered more slowly such that negligible recovery could occur during this interval. The percent decrease in sodium current following wash-on of compound was taken as the percent block of sodium channels.

NaV1.5 = biological target: T3, NaV1.5 (Homo sapiens, UniProt Q14524); experiment: Patch voltage clamp electrophysiology assay (EP), NaV1.5 in HEK-293 cells; type: cell-based; settings: HEK-293, β1 coexpressed, held at -60 mV (inactivated state)
T3 construct: expression vector containing the full-length cDNA coding for the desired human sodium channel α-subunit; expressed in transfected cells; host or cells: HEK-293
T3 sequence (Q14524 whole entry): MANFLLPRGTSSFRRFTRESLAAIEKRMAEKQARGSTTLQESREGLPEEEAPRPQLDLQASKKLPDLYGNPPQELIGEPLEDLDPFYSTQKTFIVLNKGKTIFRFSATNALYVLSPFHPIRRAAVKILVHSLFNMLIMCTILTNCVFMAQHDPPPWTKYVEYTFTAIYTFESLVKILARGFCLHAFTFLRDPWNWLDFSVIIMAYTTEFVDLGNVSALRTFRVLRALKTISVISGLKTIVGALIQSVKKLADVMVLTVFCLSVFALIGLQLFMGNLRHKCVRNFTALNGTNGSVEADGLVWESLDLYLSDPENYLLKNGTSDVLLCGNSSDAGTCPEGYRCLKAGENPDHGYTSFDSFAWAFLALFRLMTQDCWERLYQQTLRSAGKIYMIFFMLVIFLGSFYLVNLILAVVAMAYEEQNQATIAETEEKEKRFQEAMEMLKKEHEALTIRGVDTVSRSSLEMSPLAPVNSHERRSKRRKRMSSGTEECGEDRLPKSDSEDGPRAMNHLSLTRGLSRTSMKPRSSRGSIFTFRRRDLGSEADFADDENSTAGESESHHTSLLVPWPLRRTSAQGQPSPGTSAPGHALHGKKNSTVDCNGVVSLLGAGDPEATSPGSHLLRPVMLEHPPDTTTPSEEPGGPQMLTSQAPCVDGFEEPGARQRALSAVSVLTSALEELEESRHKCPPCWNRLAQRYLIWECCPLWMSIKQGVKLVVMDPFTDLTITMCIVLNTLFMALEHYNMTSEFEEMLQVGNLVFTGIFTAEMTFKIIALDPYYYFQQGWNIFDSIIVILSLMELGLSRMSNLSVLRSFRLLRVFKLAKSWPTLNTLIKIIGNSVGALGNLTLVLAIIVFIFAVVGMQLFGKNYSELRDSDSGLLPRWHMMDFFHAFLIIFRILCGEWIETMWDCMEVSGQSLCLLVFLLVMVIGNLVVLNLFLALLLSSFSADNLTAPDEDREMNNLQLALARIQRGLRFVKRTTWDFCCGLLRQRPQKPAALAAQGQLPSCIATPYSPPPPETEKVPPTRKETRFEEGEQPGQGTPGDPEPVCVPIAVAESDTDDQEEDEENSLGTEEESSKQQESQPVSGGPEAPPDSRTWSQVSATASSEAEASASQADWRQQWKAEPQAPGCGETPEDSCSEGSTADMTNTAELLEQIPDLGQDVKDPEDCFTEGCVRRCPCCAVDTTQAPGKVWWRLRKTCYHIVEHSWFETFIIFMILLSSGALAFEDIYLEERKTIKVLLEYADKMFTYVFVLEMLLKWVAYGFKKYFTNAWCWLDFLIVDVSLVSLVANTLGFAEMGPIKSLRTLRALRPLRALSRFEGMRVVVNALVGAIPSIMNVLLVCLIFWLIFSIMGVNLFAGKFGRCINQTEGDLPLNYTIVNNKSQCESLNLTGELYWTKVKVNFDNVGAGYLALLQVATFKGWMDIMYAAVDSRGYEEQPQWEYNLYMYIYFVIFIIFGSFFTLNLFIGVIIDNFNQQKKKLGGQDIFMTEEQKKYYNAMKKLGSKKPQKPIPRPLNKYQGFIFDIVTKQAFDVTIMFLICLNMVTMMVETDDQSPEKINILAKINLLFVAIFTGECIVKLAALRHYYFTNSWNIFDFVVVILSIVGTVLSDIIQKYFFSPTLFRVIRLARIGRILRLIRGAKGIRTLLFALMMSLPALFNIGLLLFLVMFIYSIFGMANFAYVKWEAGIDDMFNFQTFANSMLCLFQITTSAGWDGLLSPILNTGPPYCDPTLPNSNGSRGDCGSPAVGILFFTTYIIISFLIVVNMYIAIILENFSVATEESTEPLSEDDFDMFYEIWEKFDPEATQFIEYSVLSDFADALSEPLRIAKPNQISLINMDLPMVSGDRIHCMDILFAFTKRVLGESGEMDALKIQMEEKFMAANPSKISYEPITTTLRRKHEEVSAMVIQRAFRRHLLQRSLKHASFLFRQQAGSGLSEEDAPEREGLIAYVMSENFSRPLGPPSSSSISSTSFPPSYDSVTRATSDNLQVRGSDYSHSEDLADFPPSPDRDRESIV
Description: as §1, §2, §3, §4, §5, §6

SMILES	pIC50 (hNav1.7)	pIC50 (NaV1.7)	pIC50 (NaV1.5)	pIC50 (NaV1.5; human, pH 7.4)
Cc1nn(C2CCN(Cc3cc(C(F)(F)F)cc(Cl)c3F)CC2)c2cc(F)c(C(=O)NS(C)(=O)=O)cc12 [Example 1, 1-(1-(3-chloro-2-fluoro-5-(trifluoromethyl)benzyl)piperidin-4-yl)-6-fluoro-3-methyl-N-(methylsulfonyl)-1H-indazole-5-carboxamide 2,2,2-trifluoroacetate]	7.47	6.17	4.66	–
Cc1nn(C2CCN(Cc3cc(C(F)(F)F)cc(Cl)c3F)CC2)c2cc(F)c(C(=O)NS(=O)(=O)C3CC3)cc12 [Example 2, 1-(1-(3-chloro-2-fluoro-5-(trifluoromethyl)benzyl)piperidin-4-yl)-N-(cyclopropylsulfonyl)-6-fluoro-3-methyl-1H-indazole-5-carboxamide 2,2,2-trifluoroacetate]	7.89	7.07	5.31	–
Cc1nn(C2CCN(Cc3cc(C(F)(F)F)cc(Cl)c3F)CC2)c2cc(F)c(C(=O)NS(=O)(=O)N3CCC3)cc12 [Example 3, N-(azetidin-1-ylsulfonyl)-1-(1-(3-chloro-2-fluoro-5-(trifluoromethyl)benzyl)piperidin-4-yl)-6-fluoro-3-methyl-1H-indazole-5-carboxamide 2,2,2-trifluoroacetate]	7.48	6.60	5.13	–
Cc1nn(C2CCN(Cc3cc(Cl)cc(OC(F)(F)F)c3)CC2)c2cc(F)c(C(=O)NS(C)(=O)=O)cc12 [Example 4, 1-(1-(3-chloro-5-(trifluoromethoxy)benzyl)piperidin-4-yl)-6-fluoro-3-methyl-N-(methylsulfonyl)-1H-indazole-5-carboxamide 2,2,2-trifluoroacetate]	7.62	6.38	4.59	–
Cc1nn(C2CCN(Cc3cc(Cl)cc(OC(F)(F)F)c3)CC2)c2cc(F)c(C(=O)NS(=O)(=O)C3CC3)cc12 [Example 5, 1-(1-(3-chloro-5-(trifluoromethoxy)benzyl)piperidin-4-yl)-N-(cyclopropylsulfonyl)-6-fluoro-3-methyl-1H-indazole-5-carboxamide]	8.22	7.29	5.62	–
Cc1nn(C2CCN(Cc3cc(Cl)cc(Cl)c3)CC2)c2cc(F)c(C(=O)NS(=O)(=O)C3CC3)cc12 [Example 6, N-(cyclopropylsulfonyl)-1-(1-(3,5-dichlorobenzyl)piperidin-4-yl)-6-fluoro-3-methyl-1H-indazole-5-carboxamide 2,2,2-trifluoroacetate]	7.85	7.14	5.15	–
Cc1nn(C2CCN(Cc3cc(OC(F)(F)F)ccc3Br)CC2)c2cc(F)c(C(=O)NS(=O)(=O)C3CC3)cc12 [Example 7, 1-(1-(2-bromo-5-(trifluoromethoxy)benzyl)piperidin-4-yl)-N-(cyclopropylsulfonyl)-6-fluoro-3-methyl-1H-indazole-5-carboxamide 2,2,2-trifluoroacetate]	8.30	8.05	6.20	–
Cc1nn(-c2ccc3c(c2)CCCC3)c2cc(F)c(C(=O)NS(=O)(=O)N3CCC3)cc12 [Example 25, N-(azetidin-1-ylsulfonyl)-6-fluoro-3-methyl-1-(5,6,7,8-tetrahydronaphthalen-2-yl)-1H-indazole-5-carboxamide]	6.59	7.36	–	–
Cc1nn(-c2ccc3c(c2)CCCC3)c2cc(F)c(C(=O)NS(C)(=O)=O)cc12 [Example 26, 6-fluoro-3-methyl-N-(methylsulfonyl)-1-(5,6,7,8-tetrahydronaphthalen-2-yl)-1H-indazole-5-carboxamide]	7.00	6.80	–	–
Cc1nn(C2CCC(C(C)(C)C)CC2)c2cc(F)c(C(=O)NS(=O)(=O)N3CCC3)cc12 (stereo not shown) [Example 27, N-(azetidin-1-ylsulfonyl)-1-(4-(tert-butyl)cyclohexyl)-6-fluoro-3-methyl-1H-indazole-5-carboxamide]	7.64	6.85	–	–
Cc1nn(C2CCC(C(C)(C)C)CC2)c2cc(F)c(C(=O)NS(C)(=O)=O)cc12 (stereo not shown) [Example 28, 1-(4-(tert-butyl)cyclohexyl)-6-fluoro-3-methyl-N-(methylsulfonyl)-1H-indazole-5-carboxamide]	7.33	6.49	–	–
Cc1nn(C2CCC(C)CC2)c2cc(F)c(C(=O)NS(=O)(=O)N3CCC3)cc12 (stereo not shown) [Example 29, N-(azetidin-1-ylsulfonyl)-6-fluoro-3-methyl-1-(4-methylcyclohexyl)-1H-indazole-5-carboxamide]	6.46	6.00	–	–
Cc1nn(C2CCC(C(C)C)CC2)c2cc(F)c(C(=O)NS(=O)(=O)N3CCC3)cc12 (stereo not shown) [Example 30, N-(azetidin-1-ylsulfonyl)-6-fluoro-1-(4-isopropylcyclohexyl)-3-methyl-1H-indazole-5-carboxamide]	7.60	7.41	–	–
Cc1nn(C2CCC(C)CC2)c2cc(F)c(C(=O)NS(C)(=O)=O)cc12 (stereo not shown) [Example 31, 6-fluoro-3-methyl-1-(4-methylcyclohexyl)-N-(methylsulfonyl)-1H-indazole-5-carboxamide]	6.47	5.70	–	–
Cc1nn(C2CCOCC2)c2cc(F)c(C(=O)NS(=O)(=O)N3CCC3)cc12 [Example 32, N-(azetidin-1-ylsulfonyl)-6-fluoro-3-methyl-1-(tetrahydro-2H-pyran-4-yl)-1H-indazole-5-carboxamide]	–	–	–	≤ 4.52
Cc1nn(C2CCOCC2)c2cc(F)c(C(=O)NS(C)(=O)=O)cc12 [Example 34, 6-fluoro-3-methyl-N-(methylsulfonyl)-1-(tetrahydro-2H-pyran-4-yl)-1H-indazole-5-carboxamide]	–	–	–	≤ 4.52
